Results on 21 compounds are retold here after patent publication US10208046B2, “Nitrogen-containing heterocyclic compound” (Takeda Pharmaceutical Company Limited, priority 2014, dated 2019).

For this experiment, the target named is T1, human M1 receptor (hCHRM1) (Homo sapiens, UniProt P11229).
T1 construct: expressed in transfected cells
T1 sequence (P11229 1-460): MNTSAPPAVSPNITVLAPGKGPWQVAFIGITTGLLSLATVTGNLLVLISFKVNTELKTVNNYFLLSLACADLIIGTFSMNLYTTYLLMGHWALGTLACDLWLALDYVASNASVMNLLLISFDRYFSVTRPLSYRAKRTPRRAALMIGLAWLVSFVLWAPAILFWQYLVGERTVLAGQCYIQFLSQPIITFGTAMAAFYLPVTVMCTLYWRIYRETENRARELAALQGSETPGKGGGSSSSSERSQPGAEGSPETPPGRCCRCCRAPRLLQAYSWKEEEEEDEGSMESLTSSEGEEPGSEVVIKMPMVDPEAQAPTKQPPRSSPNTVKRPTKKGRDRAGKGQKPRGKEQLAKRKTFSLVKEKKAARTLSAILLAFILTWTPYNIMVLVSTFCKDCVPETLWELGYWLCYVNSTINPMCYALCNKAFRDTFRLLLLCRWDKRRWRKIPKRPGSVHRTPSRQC
The experiment is described as follows: Measurement of M1 receptor positive allosteric modulator (M1PAM) activity, calcium fluorescence in CHO-K1 cells. Type of experiment: cell-based. To be noted: for activity (%) at 10 μM: 10 μM test compound with acetylcholine at EC20, 100% = acetylcholine 1 μM, 0% = DMSO; for EC50: inflection point in the concentration-dependent curve, acetylcholine at EC20 (final 0.6-0.8 nM), CHO-K1 cells expressing human M1, Fluo-4, FLIPRtetra, read-out: IP value. As for the experimental part:
Measurement of M1 Receptor Positive Allosteric Modulator (M1PAM) Activity
The activity of a test compound in the presence of acetylcholine at EC20 concentration (final concentration 0.6-0.8 nM), which affords an action corresponding to about 20% of the maximum activity, was measured as PAM activity. The method is as follows. CHO-K1 cells stably expressing a human M1 receptor (hCHRM1) were plated on a 384-well black clear bottom plate (BD Falcon) at 5,000 cells/well, and cultured in an incubator at 37° C., 5% CO2 for 1 day. The medium in the cell plate was removed, and assay buffer A containing calcium indicator (Recording medium (DOJINDO LABORATORIES), 0.1% BSA (Wako Pure Chemical Industries, Ltd.), 2.5 μg/mL Fluo-4 AM (DOJINDO LABORATORIES), 0.08% Pluronic F127 (DOJINDO LABORATORIES), 1.25 mM probenecid (DOJINDO LABORATORIES)) was added at 30 μL/well. The cells were left standing in the incubator at 37° C., 5% CO2 for 30 min, and further left standing at room temperature for 30 min. A test compound prepared by diluting with assay buffer B (HBSS (Invitrogen), 20 mM HEPES (Invitrogen), 0.1% BSA) containing 2.4-3.2 nM acetylcholine was added at 10 μL/well, and the fluorescence was measured by FLIPRtetra (Molecular Devices) for 1 min every 1 second. With the definition that the amount of change in the fluorescence on addition of acetylcholine (final concentration 1 μM) is 100% and that on addition of DMSO instead of a test compound is 0%, the activity (%) of the test compound was calculated, and the inflection point in the concentration-dependent curve of the test compound was calculated as IP values.

SMILES strings stand for the structures.

In the case of `Cn1cc(-c2ccc(CN3Cc4ccnc(OCC(C)(F)F)c4C3=O)c(F)c2)cn1` [Example 86, 4-(2,2-difluoropropoxy)-2-(2-fluoro-4-(1-methyl-1H-pyrazol-4-yl)benzyl)-1,2-dihydro-3H-pyrrolo[3,4-c]pyridin-3-one], the “activity (%) at 10 μM” value is 91% and the EC50 turned out to be 21 nM.
Take `CCn1cc(-c2ccc(CN3Cc4ncnc(OCC(C)(F)F)c4C3=O)cc2)cn1` [Example 1, 4-(2,2-difluoropropoxy)-6-(4-(1-ethyl-1H-pyrazol-4-yl)benzyl)-6,7-dihydro-5H-pyrrolo[3,4-d]pyrimidin-5-one]: the “activity (%) at 10 μM” value is 91% and the EC50 worked out at 17 nM.
For `CCC(F)(F)COc1ncnc2c1C(=O)N(Cc1ccc(-c3cnn(CC(F)(F)F)c3)cc1)C2` [Example 69, 4-(2,2-difluorobutoxy)-(4-(1-(2,2,2-trifluoroethyl)-1H-pyrazol-4-yl)benzyl)-6,7-dihydro-5H-pyrrolo[3,4-d]pyrimidin-5-one], the “activity (%) at 10 μM” value stood at 88% and the EC50 is 9.6 nM.
Turning to `CCC(F)(F)COc1nccc2c1C(=O)N(Cc1ccc(-c3cnn(CC(F)F)c3)cc1)C2` [Example 76, 4-(2,2-difluorobutoxy)-2-(4-(1-(2,2-difluoroethyl)-1H-pyrazol-4-yl)benzyl)-1,2-dihydro-3H-pyrrolo[3,4-c]pyridin-3-one], the “activity (%) at 10 μM” value was determined as 94% and the EC50 stood at 45 nM.
On the same counts, the results for `CCn1cc(-c2ccc(CN3Cc4ccnc(OCC(F)F)c4C3=O)c(F)c2)cn1` [Example 58, 4-(2,2-difluoroethoxy)-2-(4-(1-ethyl-1H-pyrazol-4-yl)-2-fluorobenzyl)-1,2-dihydro-3H-pyrrolo[3,4-c]pyridin-3-one] are 104% and 35 nM.
As to `O=C1c2c(ccnc2OCC(F)F)CN1Cc1ccc(-c2cnn(CC(F)(F)F)c2)cc1F` [Example 57], the “activity (%) at 10 μM” value is reported as 101% and the EC50 amounted to 18 nM.
On to `Cc1nn(C)cc1-c1ccc(CN2Cc3ncnc(OCC(F)F)c3C2=O)cc1` [Example 42, 4-(2,2-difluoroethoxy)-6-(4-(1,3-dimethyl-1H-pyrazol-4-yl)benzyl)-6,7-dihydro-5H-pyrrolo[3,4-d]pyrimidin-5-one], for which the “activity (%) at 10 μM” value is listed as 106% and the EC50 came to 23 nM.
With `O=C1c2c(ccnc2OCC(F)F)CN1Cc1ccc(-c2cnn(CC(F)F)c2)cc1` [Example 61, 4-(2,2-difluoroethoxy)-2-(4-(1-(2,2-difluoroethyl)-1H-pyrazol-4-yl)benzyl)-1,2-dihydro-3H-pyrrolo[3,4-c]pyridin-3-one], the “activity (%) at 10 μM” value worked out at 91% and the EC50 was found to be 51 nM.
As to `Cn1cc(-c2ccc(CN3Cc4ccnc(OCC(F)(F)F)c4C3=O)c(F)c2)cn1` [Example 87, 2-(2-fluoro-4-(1-methyl-1H-pyrazol-4-yl)benzyl)-4-(2,2,2-trifluoroethoxy)-1,2-dihydro-3H-pyrrolo[3,4-c]pyridin-3-one], the “activity (%) at 10 μM” value came out at 101% and the EC50 was 32 nM.
In the same order, the values of `Cc1nn(C)cc1-c1ccc(CN2Cc3ccnc(OCC(C)(C)F)c3C2=O)c(F)c1` [Example 82, 2-(4-(1,3-dimethyl-1H-pyrazol-4-yl)-2-fluorobenzyl)-4-(2-fluoro-2-methylpropoxy)-1,2-dihydro-3H-pyrrolo[3,4-c]pyridin-3-one] are 95% and 17 nM.
On the same counts, the results for `Cn1cc2cc(-c3ccc(CN4Cc5ccnc(OCC(C)(F)F)c5C4=O)cc3)ccc2n1` [Example 14, 4-(2,2-difluoropropoxy)-2-(4-(2-methyl-2H-indazol-5-yl)benzyl)-1,2-dihydro-3H-pyrrolo[3,4-c]pyridin-3-one] are 88% and 51 nM.
In the same order, the values of `Cc1nn(C)cc1-c1ccc(CN2Cc3ncnc(OCC(F)(F)F)c3C2=O)c(F)c1` [Example 36, 6-(4-(1,3-dimethyl-1H-pyrazol-4-yl)-2-fluorobenzyl)-4-(2,2,2-trifluoroethoxy)-6,7-dihydro-5H-pyrrolo[3,4-d]pyrimidin-5-one] are 99% and 22 nM.
With `Cc1cc(-c2ccc(CN3Cc4ncnc(OCC(F)(F)F)c4C3=O)cc2)ccn1` [Example 11, 6-(4-(2-methylpyridin-4-yl)benzyl)-4-(2,2,2-trifluoroethoxy)-6,7-dihydro-5H-pyrrolo[3,4-d]pyrimidin-5-one], the “activity (%) at 10 μM” value is 87% and the EC50 was 23 nM.
As for `Cc1nn(C)cc1-c1ccc(CN2Cc3ncnc(OCC(C)(C)F)c3C2=O)c(F)c1` [Example 46, 6-(4-(1,3-dimethyl-1H-pyrazol-4-yl)-2-fluorobenzyl)-4-(2-fluoro-2-methylpropoxy)-6,7-dihydro-5H-pyrrolo[3,4-d]pyrimidin-5-one], the “activity (%) at 10 μM” value was determined as 90% and the EC50 worked out at 5.2 nM.
In the same order, the values of `CCC(F)(F)COc1nccc2c1C(=O)N(Cc1ccc(-c3cn[nH]c3)cc1)C2` [Example 72, 4-(2,2-difluorobutoxy)-2-(4-(1H-pyrazol-4-yl)benzyl)-1,2-dihydro-3H-pyrrolo[3,4-c]pyridin-3-one] are 90% and 59 nM.
On the same counts, the results for `Cc1nn(C)cc1-c1ccc(CN2Cc3ccnc(OCC(F)(F)C(F)F)c3C2=O)cc1` [Example 18, 2-(4-(1,3-dimethyl-1H-pyrazol-4-yl)benzyl)-4-(2,2,3,3-tetrafluoropropoxy)-1,2-dihydro-3H-pyrrolo[3,4-c]pyridin-3-one] are 102% and 280 nM.
On the same counts, the results for `CCC(F)(F)COc1nccc2c1C(=O)N(Cc1ccc(-c3cnn(C(F)F)c3)cc1)C2` [Example 63, 4-(2,2-difluorobutoxy)-2-(4-(1-(difluoromethyl)-1H-pyrazol-4-yl)benzyl)-1,2-dihydro-3H-pyrrolo[3,4-c]pyridin-3-one] are 91% and 96 nM.
As to `CCn1cc(-c2ccc(CN3Cc4ncnc(OCC(C)(C)F)c4C3=O)cc2)cn1` [Example 45, 6-(4-(1-ethyl-1H-pyrazol-4-yl)benzyl)-4-(2-fluoro-2-methylpropoxy)-6,7-dihydro-5H-pyrrolo[3,4-d]pyrimidin-5-one], the “activity (%) at 10 μM” value was 87% and the EC50 turned out to be 10 nM.
In the same order, the values of `Cn1cc(-c2ccc(CN3Cc4ccnc(OCC(C)(C)F)c4C3=O)c(F)c2)cn1` [Example 81, 4-(2-fluoro-2-methylpropoxy)-2-(2-fluoro-4-(1-methyl-1H-pyrazol-4-yl)benzyl)-1,2-dihydro-3H-pyrrolo[3,4-c]pyridin-3-one] are 88% and 32 nM.
`Cn1cc(-c2ccc(CN3Cc4ccnc(OCC(F)F)c4C3=O)c(F)c2)nn1` [Example 115, 4-(2,2-difluoroethoxy)-2-(2-fluoro-4-(1-methyl-1H-1,2,3-triazol-4-yl)benzyl)-1,2-dihydro-3H-pyrrolo[3,4-c]pyridin-3-one]: the “activity (%) at 10 μM” value was found to be 98% and the EC50 is 43 nM.
Consider `CCn1cc(-c2ccc(CN3Cc4ncnc(OCC(F)F)c4C3=O)c(F)c2)cn1` [Example 4, 4-(2,2-difluoroethoxy)-6-(4-(1-ethyl-1H-pyrazol-4-yl)-2-fluorobenzyl)-6,7-dihydro-5H-pyrrolo[3,4-d]pyrimidin-5-one], for which the “activity (%) at 10 μM” value is recorded as 99% and the EC50 stood at 8.7 nM.
